Data from patent publication US9364457B2, “Method for manufacturing composition for lowering blood lipid and elevating high-density lipoprotein” (SunWay Biotech Co., Ltd., priority 2011, dated 2016).

Assays:
[1] = test system: hamsters feed with high cholesterol diet; test: Cholesterol parameters in blood of hamsters fed high cholesterol diet; assay type: in vivo; conditions: ratio of LDL-C to HDL-C, hamsters on high cholesterol diet, 8 weeks
Description: Additionally, a composition containing monacolin K is utilized as a comparison group, which is called as MK for abbreviation.
Firstly, the experiment utilizes hamsters feed with high cholesterol diet as experimental animals, which are then feed with MS, AF, MS+AF, and MK for 8 weeks, and then each of cholesterol parameters in blood of the hamsters are analyzed. The cholesterol parameters include total cholesterol (TC), triglyceride (TG), high density lipoprotein cholesterol (HDL-C), low density lipoprotein cholesterol (LDL-C), ratio of LDL-C to HDL-C, and malondialdehyde (MDA). […] Additionally, a normal diet group is referred to as NOR, and a high cholesterol diet group is referred to as HC.

[2] = test system: lipid plaque on arterial vascular walls in the thoracic cavity; test: Lipid plaque staining in arteries of high cholesterol diet animals; assay type: in vivo, hamsters; conditions: high cholesterol diet for eight weeks, human-equivalent per day: MK 2.89 mg, MS 9.82 mg, AF 1.43 mg
Description: Firstly, the experiment utilizes hamsters feed with high cholesterol diet as experimental animals, which are then feed with MS, AF, MS+AF, and MK for 8 weeks, and then each of cholesterol parameters in blood of the hamsters are analyzed. The cholesterol parameters include total cholesterol (TC), triglyceride (TG), high density lipoprotein cholesterol (HDL-C), low density lipoprotein cholesterol (LDL-C), ratio of LDL-C to HDL-C, and malondialdehyde (MDA). The amount of the MK taken by the experimental animals is equivalent to 2.89 mg taken by an adult human per day. Additionally, a normal diet group is referred to as NOR, and a high cholesterol diet group is referred to as HC.
Another important indicator for evaluating atherosclerosis is the analysis of lipid plaque staining in arteries, and the results of lipid plaque staining can indicate that whether lipid plaque deposits on arterial vascular walls. Large amounts of lipid with over-oxidation can cause bulk deposition of foam cells, and then the vascular walls lose elasticity and large amounts of lipid plaque are deposited, so as to lead to atherosclerosis. Referring to FIG. 11, which is a diagram of quantitative results of the lipid plaque staining experiment.

[3] = test system: cholesterol biosynthesis; test: Cell experiment on inhibition of cholesterol biosynthesis; assay type: cell-based; conditions: cells treated with the same concentration, 100 ppb
Excerpt: In order to compare the inhibitory effect of cholesterol biosynthesis by monascin, ankaflavin and monacolin K, the present invention applies a cell experiment and treats cells with monascin, ankaflavin and monacolin K with the same concentration (100 ppb) for researching the influence of these ingredients on the cholesterol biosynthesis.

CC[C@H](C)C(=O)O[C@H]1C[C@@H](C)C=C2C=C[C@H](C)[C@H](CC[C@@H]3C[C@@H](O)CC(=O)O3)[C@H]21 [MK, monacolin K]
LDL/HDL [1]: 0.489 | amount of lipid plaque on arterial vascular walls (lipid plaque staining, FIG. 11) [2]: can lower the amount of lipid plaque | inhibition of cholesterol biosynthesis (FIG. 12) [3]: weakest effect
